How the values were obtained:
[1] = test system: lentiviral particles with AZT-resistant RT mutant (eGFP) in HEK293T-mCat1 cells; assay: microbe, parasite or virus in culture; assay type: cell-based, HIV-1; conditions: for Relative inhibition [%] of eGFP (mutant RT): 1 µM
[2] = test system: lentiviral particles with wild-type HIV-1 reverse transcriptase (mCherry) in HEK293T-mCat1 cells; assay: microbe, parasite or virus in culture; assay type: cell-based; conditions: for Relative inhibition [%] of mCherry (wild-type RT): 1 µM
HEK293T-mCat1 cells = conditions: 1 µM
[3] = test system: luciferase lentiviral particles (wild-type RT) in HEK293T-mCat1 cells; assay: Luciferase-based screening using HEK293T-mCat1 cells; conditions: for Identified as active in the luciferase assay / Relative inhibition [%] of luciferase (wild-type RT): 1 µM; for Identified as active in the luciferase assay: second LOPAC screen; for Relative inhibition [%] of luciferase (wild-type RT): normalized to 1 µM AZT = 100% and DMSO = 0%, HEK293T-mCat1, 3 days
in vitro = conditions: human
[4] = test system: HIV-1-derived lentiviral particles (wild-type RT and AZT-resistant RT mutant) in HEK293T-mCat1 cells; assay type: cell-based; conditions: 1 µM
[5] = molecular target: eGFP-encoding lentiviral vectors (mutant reverse transcriptase); assay: Flow-cytometry based inhibitor analysis, eGFP vector; assay type: cell-based, HIV-1; conditions: Figure S2, read-out: IC50 of the AZT-resistant mutant, FC-based analysis
[6] = molecular target: mCherry-encoding lentiviral vectors (wild-type reverse transcriptase); assay: Flow-cytometry based inhibitor analysis, mCherry vector; assay type: cell-based, HIV-1; conditions: Figure S2, read-out: IC50 of the wild-type virus, FC-based analysis
HIV = test system: HIV; set-up: method as in earlier work; conditions: read-out: reported IC50; cited from earlier work
PM1-mCat1 cells = assay: Cytotoxicity determination (CellTiter-Glo) in PM1-mCat1 cell line; assay type: cell-based, human; conditions: PM1-mCat1 viability relative to DMSO
[7] = test system: ecotropic pseudo-typed lentiviral particles (luciferase) in PM1-mCat1 cells; assay: Luciferase-based viral integration assay using PM1-mCat1 cells; conditions: Human immunodeficiency virus 1, read-out: IC50 (in µM), viral integration assay

Nc1nccc2c1ncn2[C@@H]1O[C@H](CO)[C@@H](O)[C@H]1O [3-Deazaadenosine]
Relative inhibition [%] of eGFP (mutant RT) [1]: -34%
Relative inhibition [%] of mCherry (wild-type RT) [2]: -25%
Viability [%] (HEK293T-mCat1 cells): 85%

Cc1cn([C@H]2C[C@H](N=[N+]=[N-])[C@@H](CO)O2)c(=O)[nH]c1=O [3‘-Azido-3‘-deoxythymidine]
Relative inhibition [%] of eGFP (mutant RT) [1]: 38%
Relative inhibition [%] of mCherry (wild-type RT) [2]: 73%
Viability [%] (HEK293T-mCat1 cells): 89%
Identified as active in the luciferase assay [3]: again identified
Relative inhibition [%] of luciferase (wild-type RT) [3]: 85%
Reduction of the luciferase signal ([3]; AZT control at 1 µM, HEK293T-mCat1): 50%

Cl.Nc1ccn([C@@H]2O[C@H](CO)[C@@H](O)[C@@H]2O)c(=O)n1 [Cytosine-1-beta-D-arabino-furanoside hydrochloride]
Relative inhibition [%] of eGFP (mutant RT) [1]: 95%
Relative inhibition [%] of mCherry (wild-type RT) [2]: 98%
Viability [%] (HEK293T-mCat1 cells): 38%
Identified as active in the luciferase assay [3]: again identified
Relative inhibition [%] of luciferase (wild-type RT) [3]: 211%

Oc1ccc(C2CNCCc3c2cc(O)c(O)c3Cl)cc1 (stereo not shown) [Fenoldopam bromide]
inhibition at 1 µM ([1]; Human immunodeficiency virus 1, 48 h, read-out: Relative inhibition [%] of eGFP (mutant RT)): 65%
inhibition at 1 µM ([2]; Human immunodeficiency virus 1, 48 h, read-out: Relative inhibition [%] of mCherry (wild-type RT)): 61%
viability at 1 µM (in vitro): 73%
inhibition at 1 µM ([3]; Human immunodeficiency virus 1, 72 h, read-out: Relative inhibition [%] of luciferase (wild-type RT)): -40%

Nc1nc2c(ncn2CCOCP(=O)(O)O)c(=O)[nH]1 [PMEG hydrate]
Residual transduction rate, eGFP encoding lentiviral particles, microscopy [1]: 5%
Relative inhibition [%] of eGFP (mutant RT) [1]: 70%
Residual transduction rate, mCherry encoding lentiviral particles, microscopy [2]: 30%
Relative inhibition [%] of mCherry (wild-type RT) [2]: 94%
residual activity in the high-content screening [4]: 5%
IC50 [5]: 1200 nM
IC50 [6]: 560 nM
Viability [%] (HEK293T-mCat1 cells): 54%
IC50 (HIV): 200 nM
Identified as active in the luciferase assay [3]: again identified
Relative inhibition [%] of luciferase (wild-type RT) [3]: 156%

O=C(Nc1ccccc1N1CCCCC1)c1cc(S(=O)(=O)N2CCOCC2)ccc1Cl [T6098586, ClC1=C(C=C(C=C1)S(=O)(=O)N1CCOCC1)C(=O)NC1=C(C=CC=C1)N1CCCCC1]
Concentration beyond which the compound is toxic (viability drops below 80%) (PM1-mCat1 cells): > 2000 nM
IC50 [7]: 1.78 µM
